Experimental data reported in patent publication US9266832B2, “Compounds for the treatment of neurodegenerative diseases” (Katholieke Universiteit Levun, priority 2010, dated 2016).

Tested on: M17-TAU P301L cells
Assay: Tau-induced toxicity experiment: LDH leakage of retinoic acid incubated M17-TAU P301L cells
Format: cell-based
Settings: Homo sapiens, Neuroblastoma cell, 168 h; reduction of LDH activity of retinoic acid incubated M17-TAU P301L neuroblastoma cells, 7 days
Source text: A TAU expression plasmid was constructed by sub-cloning the cDNA of human TAU-P301L (encoding for TAU with proline 301 substituted by a leucine residue) into mammalian expression vector pcDNA3.1 resulting in plasmid pcDNA3.1-TAU P301L. Plasmids pcDNA3.1 and pcDNA3.1-TAU P301L were transfected to human neuroblastoma cells ([…]; ATCC No. CRL-2267) and independent clonal lines with the plasmids stably integrated into the genome were selected. […] Expression of the TAU P301L genes in the cell lines was confirmed by Western analysis.
In degenerated or dead cells lactate dehydrogenase (LDH) is leaked out of the cells into the extracellular environment due to a loss of plasma-membrane integrity. This principle was used to determine cytotoxicity by quantifying the level of leaked LDH into the growth medium.
The detailed method for determining TAU cytotoxicity was as follows: From appropriate precultures of M17-3.1 and M17-TAU(P301L) cells were seeded at 2500 cells/cm2 in Optimem Reduced Serum without phenol red (Gibco, Cat. 31985-047) supplemented with 1% fetal calf serum, 1 mM sodium pyruvate, 1× non-essential amino acids, 500 μg/ml G418 0.5× antibiotic/antimycotic. After 3 h of incubation at 37° C./5% CO2 1 volume of Optimem Reduced Serum (same as described above; except without fetal calf serum) supplemented with 2.5 μM retinoic acid (RA) was added. The cells were further incubated for 7 days. Subsequently, LDH activity was determined using Promega Cytotox 96 Non-Radioactive cytotoxicity assay, (Cat. G1780) according the supplier's instructions.
The M17-TAU P301L cell line made it possible to assess the ability of novel compounds to counteract TAU cytotoxicity. […] These measurements were used to calculate EC50 values of table 2.

Q: For `O=C(NCCc1c[nH]c2ccc(Cl)cc12)c1cccc(Cc2cccc(Cl)c2)c1` [Cpd055, N-(2-(5-chloro-1H-indol-3-yl)ethyl)-3-(3-chlorobenzyl)benzamide], which EC50 is on record?
A: The EC50 was 36 nM.

Q: `Cc1ccc(Cc2ccc(C(=O)NCCc3c[nH]c4ccc(Cl)cc34)cc2)cc1` [Cpd033, N-(2-(5-chloro-1H-indol-3-yl)ethyl)-4-(4-methylbenzyl)benzamide] was tested. Which EC50 did it give?
A: The EC50 was 31 nM.

Q: With `O=C(NCCc1c[nH]c2ccc(Cl)cc12)c1cccc(Nc2ccccc2)c1` [Cpd094, N-(2-(5-chloro-1H-indol-3-yl)ethyl)-3-(phenylamino)benzamide] as the compound, how does the EC50 read?
A: Its EC50 is 161 nM.

Q: With `O=C(NCCc1c[nH]c2ccc(Cl)cc12)c1ccc(Cc2cccc(Cl)c2)cc1` [Cpd046, N-(2-(5-chloro-1H-indol-3-yl)ethyl)-4-(3-chlorobenzyl)benzamide] as the compound, how does the EC50 read?
A: Its EC50 is 7 nM.

Q: Which EC50 does the source give for `O=C(NCCc1c[nH]c2ccc(Cl)cc12)c1ccc(CNCC2CCCCC2)cc1` [Cpd018, N-(2-(5-chloro-1H-indol-3-yl)ethyl)-4-((cyclohexylmethylamino)methyl)benzamide] here?
A: The EC50 was 168 nM.

Q: With `O=C(NCCc1c[nH]c2ccc(Cl)cc12)c1ccc(Cc2ccccc2Cl)cc1` [Cpd047, N-(2-(5-chloro-1H-indol-3-yl)ethyl)-4-(2-chlorobenzyl)benzamide] as the compound, how does the EC50 read?
A: Its EC50 is 65 nM.

Q: For `O=C(NCCc1c[nH]c2ccc(Cl)cc12)c1ccc(Cc2ccc(Cl)cc2)cc1` [Cpd045, N-(2-(5-chloro-1H-indol-3-yl)ethyl)-4-(4-chlorobenzyl)benzamide], which EC50 is on record?
A: The EC50 was 22 nM.

Q: For `O=C(NCc1c[nH]c2ccc(Cl)cc12)c1ccc(Cc2cccc(F)c2)cc1` [Cpd071, N-((5-chloro-1H-indol-3-yl)methyl)-4-(3-fluorobenzyl)benzamide], which EC50 is on record?
A: The EC50 was 277 nM.

Q: Which EC50 does the source give for `O=C(NCCc1c[nH]c2ccc(Cl)cc12)c1ccc(Cc2cccc(F)c2)cc1` [Cpd048, N-(2-(5-chloro-1H-indol-3-yl)ethyl)-4-(3-fluorobenzyl)benzamide] here?
A: Its EC50 is 13 nM.

Q: For `Cc1[nH]c2ccc(Cl)cc2c1CCNC(=O)c1ccc(Cc2cccc(F)c2)cc1` [Cpd098, N-(2-(5-chloro-2-methyl-1H-indol-3-yl)ethyl)-4-(3-fluorobenzyl)benzamide], which EC50 is on record?
A: Its EC50 is 535 nM.

Q: Which EC50 does the source give for `O=C(NCCc1c[nH]c2ccc(Cl)cc12)c1ccc(Cc2cccc(F)c2)cn1` [Cpd107, N-(2-(5-chloro-1H-indol-3-yl)ethyl)-5-(3-fluorobenzyl)picolinamide] here?
A: The EC50 was 26 nM.

Q: `O=C(NCCc1c[nH]c2ccc(Cl)cc12)c1cccc(Cc2ccco2)c1` [Cpd077, N-(2-(5-chloro-1H-indol-3-yl)ethyl)-3-(furan-2-ylmethyl)benzamide] was tested. Which EC50 did it give?
A: The EC50 was 17 nM.

Q: Which EC50 does the source give for `O=C(NCCc1c[nH]c2ccc(-c3ccccc3)cc12)c1ccc(Cc2cccc(F)c2)cc1` [Cpd111, 4-(3-fluorobenzyl)-N-(2-(5-phenyl-1H-indol-3-yl)ethyl)benzamide] here?
A: The EC50 was 537 nM.

Q: `Cc1ccc2[nH]cc(CCNC(=O)c3ccc(Cc4cccc(F)c4)cc3)c2c1` [Cpd084, 4-(3-fluorobenzyl)-N-(2-(5-methyl-1H-indol-3-yl)ethyl)benzamide] was tested. Which EC50 did it give?
A: Its EC50 is 26 nM.

Q: `O=C(NCCc1c[nH]c2ccc(Cl)cc12)c1ccc(Cc2ccco2)cc1` [Cpd087, N-(2-(5-chloro-1H-indol-3-yl)ethyl)-4-(furan-2-ylmethyl)benzamide] was tested. Which EC50 did it give?
A: The EC50 was 133 nM.

Q: Which EC50 does the source give for `O=C(NCCc1c[nH]c2ccc(N3CCOCC3)cc12)c1ccc(Cc2cccc(F)c2)cc1` [Cpd116, 4-(3-fluorobenzyl)-N-(2-(5-morpholino-1H-indol-3-yl)ethyl)benzamide] here?
A: Its EC50 is 166 nM.

Q: `O=C(NCCc1c[nH]c2ccc(Cl)cc12)c1ccc(Cc2ccccc2C(F)(F)F)cc1` [Cpd041, N-(2-(5-chloro-1H-indol-3-yl)ethyl)-4-(2-(trifluoromethyl)benzyl)benzamide] was tested. Which EC50 did it give?
A: The EC50 was 80 nM.

Q: Which EC50 does the source give for `O=C(NCCc1c[nH]c2ccc(Cl)cc12)c1ccc(CNCc2cccs2)cc1` [Cpd026, N-(2-(5-chloro-1H-indol-3-yl)ethyl)-4-((thiophen-2-ylmethylamino)methyl)benzamide] here?
A: The EC50 was 83 nM.

Q: Which EC50 does the source give for `N#Cc1ccccc1Cc1cccc(C(=O)NCCc2c[nH]c3ccc(Cl)cc23)c1` [Cpd060, N-(2-(5-chloro-1H-indol-3-yl)ethyl)-3-(2-cyanobenzyl)benzamide] here?
A: Its EC50 is 116 nM.

Q: `O=C(NCCc1c[nH]c2ccc(Cl)cc12)c1cccc(CNC2CCCCC2)c1` [Cpd024, N-(2-(5-chloro-1H-indol-3-yl)ethyl)-3-((cyclohexylamino)methyl)benzamide] was tested. Which EC50 did it give?
A: Its EC50 is 724 nM.

Q: `N#Cc1ccccc1Cc1ccc(C(=O)NCCc2c[nH]c3ccc(Cl)cc23)cc1` [Cpd059, N-(2-(5-chloro-1H-indol-3-yl)ethyl)-4-(2-cyanobenzyl)benzamide] was tested. Which EC50 did it give?
A: The EC50 was 68 nM.

Q: Which EC50 does the source give for `O=C(NCCc1c[nH]c2ccc(Cl)cc12)c1ccc(Oc2cccc(F)c2)cc1` [Cpd105, N-(2-(5-chloro-1H-indol-3-yl)ethyl)-4-(3-fluorophenoxy)benzamide] here?
A: The EC50 was 112 nM.

Q: For `O=C(NCCc1c[nH]c2ccc(Cl)cc12)c1ccc(Cc2ccc(F)cc2)cc1` [Cpd061, N-(2-(5-chloro-1H-indol-3-yl)ethyl)-4-(4-fluorobenzyl)benzamide], which EC50 is on record?
A: Its EC50 is 86 nM.

Q: Which EC50 does the source give for `O=C(NCCc1c[nH]c2ccc(Cl)cc12)c1ccc(Cn2cccn2)cc1` [Cpd011, 4-((1H-pyrazol-1-yl)methyl)-N-(2-(5-chloro-1H-indol-3-yl)ethyl)benzamide] here?
A: Its EC50 is 173 nM.

Q: How did the EC50 turn out when `Cc1ccccc1Cc1ccc(C(=O)NCCc2c[nH]c3ccc(Cl)cc23)cc1` [Cpd028, N-(2-(5-chloro-1H-indol-3-yl)ethyl)-4-(2-methylbenzyl)benzamide] was run?
A: Its EC50 is 370 nM.

Q: `O=C(NCCc1c[nH]c2ccc(Cl)cc12)c1cccc(Cc2ccc(C(F)(F)F)cc2)c1` [Cpd040, N-(2-(5-chloro-1H-indol-3-yl)ethyl)-3-(4-(trifluoromethyl)benzyl)benzamide] was tested. Which EC50 did it give?
A: The EC50 was 103 nM.

Q: `COc1ccc(Cc2cccc(C(=O)NCCc3c[nH]c4ccc(Cl)cc34)c2)cc1` [Cpd057, N-(2-(5-chloro-1H-indol-3-yl)ethyl)-3-(4-methoxybenzyl)benzamide] was tested. Which EC50 did it give?
A: The EC50 was 147 nM.

Q: With `N#Cc1ccc(Cc2ccc(C(=O)NCCc3c[nH]c4ccc(Cl)cc34)cc2)cc1` [Cpd031, N-(2-(5-chloro-1H-indol-3-yl)ethyl)-4-(4-cyanobenzyl)benzamide] as the compound, how does the EC50 read?
A: Its EC50 is 16 nM.

Q: `O=C(NCCc1c[nH]c2ncc(Cl)cc12)c1ccc(Cc2cccc(F)c2)cc1` [Cpd101, N-(2-(5-chloro-1H-pyrrolo[2,3-b]pyridin-3-yl)ethyl)-4-(3-fluorobenzyl)benzamide] was tested. Which EC50 did it give?
A: Its EC50 is 1050 nM.

Q: Which EC50 does the source give for `O=C(NCCc1c[nH]c2ccc(Cl)cc12)c1ccc(Cc2ccccc2F)cc1` [Cpd049, N-(2-(5-chloro-1H-indol-3-yl)ethyl)-4-(2-fluorobenzyl)benzamide] here?
A: Its EC50 is 31 nM.

Q: Which EC50 does the source give for `O=C(NCCc1c[nH]c2ccc(Cl)cc12)c1ccc(Cc2ccc(C(F)(F)F)cc2)cc1` [Cpd039, N-(2-(5-chloro-1H-indol-3-yl)ethyl)-4-(4-(trifluoromethyl)benzyl)benzamide] here?
A: Its EC50 is 22 nM.

Q: Which EC50 does the source give for `O=C(NCCc1c[nH]c2ccc(Cl)cc12)c1ccc(Cc2ccccc2)cc1` [Cpd015, 4-benzyl-N-(2-(5-chloro-1H-indol-3-yl)ethyl)benzamide] here?
A: Its EC50 is 154 nM.

Q: Which EC50 does the source give for `COc1ccc(Cc2ccc(C(=O)NCCc3c[nH]c4ccc(Cl)cc34)cc2)cc1` [Cpd056, N-(2-(5-chloro-1H-indol-3-yl)ethyl)-4-(4-methoxybenzyl)benzamide] here?
A: Its EC50 is 70 nM.

Q: With `N#Cc1cccc(Cc2ccc(C(=O)NCc3c[nH]c4ccc(Cl)cc34)cc2)c1` [Cpd072, N-((5-chloro-1H-indol-3-yl)methyl)-4-(3-cyanobenzyl)benzamide] as the compound, how does the EC50 read?
A: Its EC50 is 132 nM.
